From US5008386A, “Methylated cyclodextrin type compounds and process for preparing same” (Chinoin Gyogyszer es Vegyeszeti Termekek Gyara R.T., priority 1987, dated 1991)
In brackets after ≈: the same amount, converted by molar mass. Several values for one entry are separate records, joined by “and”; a condition that tells them apart may be missing. Equal entries are not always repeated. Where two headings read alike, the source gives them in different places.

Assays:
human erythrocytes [1] = experiment: in vitro; format: cell-based
Experimental: (§1) Solutions containing the test substances in 10 mM concentration were prepared in a 10 mM phosphate buffer at pH 7.4. The commercially available α-, β- and γ-CD products manufactured by Chinoin Chemical and Pharmaceutical Works Ltd. (Budapest, Hungary) were used.
(§2) DIMEB and TRIMEB, i.e. heptakis(2,6-di-O-methyl)-β-CD and heptakis(2,3,6-tri-O-methyl)-β-CD, respectively were prepared by the partial or total methylation of β-CD as described previously.
(§3) Fresh human blood (taken from healthy donors being under no medicinal treatment) treated by citrate as anticoagulant was centrifuged at 2000-3000× g for 10 minutes, then the supernatant was decanted, the eryhtrocytes were suspended in 5 ml of 10 mM isotonic phosphate buffer each and again centrifuged at 2000-3000× g for 10 minutes. After repeating twice this operation, the resulting erythrocytes were suspended in isotonic phosphate buffer to obtain a haematocrite volume of about 10%. This suspension (which could be stored in a refrigerator at about 4° C. for at most 48 hours) was used in further experiments.
(§4) 0.4 ml of erythrocyte suspension was added to a test solution of 4 ml total volume containing the tested CD-s and derivatives in various concentrations, then the mixture was incubated at 37° C. for 30 minutes. The mixture of 4 ml isotonic phosphate buffer and 0.4 ml erythrocyte suspension was used as blank trial (which was treated similarly to the samples).
(§5) After 30 minutes, the suspensions being present in the centrifuge tubes were centrifuged at 250-500× g for 10 minutes. (It was observed that no transparent supernatant, useful for spectrophotometric determination was obtained when the centrifuging was carried out for a shorter time.) After 10 minutes, the supernatants were drained off and their extinction was photometrically determined at 543 nm against a blank solution. In order to give the percentage of haemolysis, the extinction measured after a complete haemolysis had to be determined. This value was obtained in such a way that 0.4 ml of erythrocyte suspension was added to 4 ml of distilled water, then incubation and centrifuging were carried out in the same manner as described for the samples. The extinction of the solution thus obtained gave the 100% value of the haemolysis; when relating the measured extinctions of the samples to the 100% value, the extent of the haemolysis was obtained as a relative percentage.

in vitro = format: cell-based, human; conditions: human, erythrocytes, pH 7.4
Experimental: as §1, §2, §3, §4, §5

[2] = Solubility-increasing effect (UV spectrophotometry, 22 °C, 18 hours stirring)
Experimental: Therefore comparative examinations concerning the solubility-increasing effect were performed with model guest-molecules containing a basic group. (The measurements were carried out by UV spectrophotometry at 22° C. after stirring for 18 hours).

human erythrocytes [3] = conditions: cited from earlier work
[4] = 2.5% SUMEB vs 2.5% DIMEB solution, * UV maximum shifted (Sensit base)
[5] = 37° C., pH 7,4, 10 mmoles isotonic phosphate buffer
[6] = human, erythrocytes, 0.5 h, pH 7.4

Row | Compound | HC50 at 0.5 h (in vitro) | MNTC at 0.5 h (in vitro) | SUMEB / DIMEB (ratio of solubilities) [2, 4] | solubility at 18 h ([2]; 2.5% dimeb solution) [µg/mL] | solubility at 18 h ([2]; 2.5% sumeb solution) [µg/mL] | also measured
1 | COC[C@H]1O[C@@H]2O[C@H]3[C@H](O)[C@@H](OC)[C@@H](O[C@H]4[C@H](O)[C@@H](OC)[C@@H](O[C@H]5[C@H](O)[C@@H](OC)[C@@H](O[C@H]6[C@H](O)[C@@H](OC)[C@@H](O[C@H]7[C@H](O)[C@@H](OC)[C@@H](O[C@H]8[C@H](O)[C@@H](OC)[C@@H](O[C@H]1[C@H](O)[C@H]2OC)O[C@@H]8COC)O[C@@H]7COC)O[C@@H]6COC)O[C@@H]5COC)O[C@@H]4COC)O[C@@H]3COC [DIMEB, heptakis(2,6-di-O-methyl)-β-CD] | 1 mM and 1440 µg/mL | 220 µM and 300 µg/mL | – | – | – | concentration giving the same percentage of haemolysis, relative to β-CD (human erythrocytes [1]): one sixth
2 | CC(Cc1ccccc1)NCCC(c1ccccc1)c1ccccc1 (racemic) [± Prenylamine base, Prenylamine] | – | – | 3.75 | 2000 (≈ 6.07 mM) | 7500 (≈ 22.8 mM) | solubility at 18 h ([2]; water): 310 µg/mL (≈ 0.941 mM)
3 | OC[C@H]1O[C@@H]2O[C@H]3[C@H](O)[C@@H](O)[C@@H](O[C@H]4[C@H](O)[C@@H](O)[C@@H](O[C@H]5[C@H](O)[C@@H](O)[C@@H](O[C@H]6[C@H](O)[C@@H](O)[C@@H](O[C@H]7[C@H](O)[C@@H](O)[C@@H](O[C@H]8[C@H](O)[C@@H](O)[C@@H](O[C@H]1[C@H](O)[C@H]2O)O[C@@H]8CO)O[C@@H]7CO)O[C@@H]6CO)O[C@@H]5CO)O[C@@H]4CO)O[C@@H]3CO [β-CD, β-cyclodextrin] | 6 mM and 6800 µg/mL | 1.6 mM and 1800 µg/mL | – | – | – | concentration at (and above) which haemolysis is induced (human erythrocytes [3]; [5]): 3 mmol
4 | trideca-O-methyl-monosuccinyl-β-cyclodextrin [SUMEB] | – | – | – | – | – | haemolytic effect, in words (human erythrocytes [1]): significantly lower in comparison to the haemolytic effect of the mother compound; concentration at which no haemolytic effect was observed (human erythrocytes [1]; [6]): 300 µg/mL; concentration with a haemolysis value of 50% (human erythrocytes [1]; [6]): 6500 µg/mL
5 | trideca-O-methyl-monosuccinyl-β-cyclodextrin methyl ester [Succinyl-DIMEB methyl ester] | – | – | – | – | – | haemolytic effect, in words (human erythrocytes [1]): not significantly different from the haemolytic effect of the trideca-O-methyl-monosuccinyl-β-CD
6 | COC[C@H]1O[C@@H]2O[C@H]3[C@H](OC)[C@@H](OC)[C@@H](O[C@H]4[C@H](OC)[C@@H](OC)[C@@H](O[C@H]5[C@H](OC)[C@@H](OC)[C@@H](O[C@H]6[C@H](OC)[C@@H](OC)[C@@H](O[C@H]7[C@H](OC)[C@@H](OC)[C@@H](O[C@H]8[C@H](OC)[C@@H](OC)[C@@H](O[C@H]1[C@H](OC)[C@H]2OC)O[C@@H]8COC)O[C@@H]7COC)O[C@@H]6COC)O[C@@H]5COC)O[C@@H]4COC)O[C@@H]3COC [TRIMEB, heptakis(2,3,6-tri-O-methyl)-β-CD] | 4 mM and 5700 µg/mL | 1.4 mM and 2000 µg/mL | – | – | – | haemolytic effect, in words (human erythrocytes [1]): also higher than that of the mother compound
7 | OC[C@H]1O[C@@H]2O[C@H]3[C@H](O)[C@@H](O)[C@@H](O[C@H]4[C@H](O)[C@@H](O)[C@@H](O[C@H]5[C@H](O)[C@@H](O)[C@@H](O[C@H]6[C@H](O)[C@@H](O)[C@@H](O[C@H]7[C@H](O)[C@@H](O)[C@@H](O[C@H]1[C@H](O)[C@H]2O)O[C@@H]7CO)O[C@@H]6CO)O[C@@H]5CO)O[C@@H]4CO)O[C@@H]3CO [α-CD] | 12 mM and 11700 µg/mL | 6 mM and 5800 µg/mL | – | – | – | low concentration protecting human erythrocytes against heat-induced or osmotic haemolysis (human erythrocytes [3]): 5 mmol; concentration at (and above) which haemolysis is induced (human erythrocytes [3]; pH 7): 6 mmol; Haemolysis values, measured (human erythrocytes [1]; [6]): 4.97%
8 | OC[C@H]1O[C@@H]2O[C@H]3[C@H](O)[C@@H](O)[C@@H](O[C@H]4[C@H](O)[C@@H](O)[C@@H](O[C@H]5[C@H](O)[C@@H](O)[C@@H](O[C@H]6[C@H](O)[C@@H](O)[C@@H](O[C@H]7[C@H](O)[C@@H](O)[C@@H](O[C@H]8[C@H](O)[C@@H](O)[C@@H](O[C@H]9[C@H](O)[C@@H](O)[C@@H](O[C@H]1[C@H](O)[C@H]2O)O[C@@H]9CO)O[C@@H]8CO)O[C@@H]7CO)O[C@@H]6CO)O[C@@H]5CO)O[C@@H]4CO)O[C@@H]3CO [γ-CD] | 24 mM and 32000 µg/mL | ≤ 9 mM and ≤ 11000 µg/mL | – | – | – | concentration at (and above) which haemolysis is induced (human erythrocytes [3]; [5]): 16 mmol; low concentration protecting human erythrocytes against heat-induced or osmotic haemolysis (human erythrocytes [3]): 10 mmol
9 | C[C@@H]([C@H](O)c1ccccc1)N(C)C [- N-Methylephedrine base, N-Methylephedrine] | – | – | 1.2 | 18500 (≈ 103 mM) | 22000 (≈ 123 mM) | –
10 | c1ccc(Nc2ccccc2)cc1 [Diphenylamine] | – | – | 0.72 | 520 (≈ 3.07 mM) | 410 (≈ 2.42 mM) | –
11 | CC(NCCC(c1ccccc1)c1ccccc1)c1ccccc1 (racemic) [± Sensit base] | – | – | – | 5500 (≈ 17.4 mM) | 8500 (≈ 26.9 mM) | SUMEB / DIMEB (ratio of solubilities) [2]: 1.53; solubility at 18 h ([2]; water): 2100 µg/mL (≈ 6.66 mM)
12 | CC(C)CCC[C@@H](C)[C@H]1CC[C@H]2[C@@H]3CC=C4C[C@@H](O)CC[C@]4(C)[C@H]3CC[C@]12C [Cholesterol] | – | – | 0.37 | 1710 (≈ 4.42 mM) | 640 (≈ 1.66 mM) | solubility at 18 h ([2]; water): 100 µg/mL (≈ 0.259 mM)
